{
  "source": "paper PMC6066219",
  "about": "(PLoS ONE, 2018)",
  "key": {"[1]": {"test_system": "peptidase (protease type 1 from bovine pancreas, Sigma Aldrich)", "assay": "PBS with 10 mU of peptidase", "settings": "37°C, up to 120 min"}, "[2]": {"assay": "freshly prepared human serum", "settings": "37°C, up to 4 h"}, "CCK2 receptor": {"biological_target": "T1, CCK2 receptor (Homo sapiens, UniProt P32239)", "T1 construct": "expressed in transfected cells; host or cells: A431 human epidermoid carcinoma cells (A431-CCK2R), gift from Dr. L. Aloj", "T1 sequence (P32239 1-447)": "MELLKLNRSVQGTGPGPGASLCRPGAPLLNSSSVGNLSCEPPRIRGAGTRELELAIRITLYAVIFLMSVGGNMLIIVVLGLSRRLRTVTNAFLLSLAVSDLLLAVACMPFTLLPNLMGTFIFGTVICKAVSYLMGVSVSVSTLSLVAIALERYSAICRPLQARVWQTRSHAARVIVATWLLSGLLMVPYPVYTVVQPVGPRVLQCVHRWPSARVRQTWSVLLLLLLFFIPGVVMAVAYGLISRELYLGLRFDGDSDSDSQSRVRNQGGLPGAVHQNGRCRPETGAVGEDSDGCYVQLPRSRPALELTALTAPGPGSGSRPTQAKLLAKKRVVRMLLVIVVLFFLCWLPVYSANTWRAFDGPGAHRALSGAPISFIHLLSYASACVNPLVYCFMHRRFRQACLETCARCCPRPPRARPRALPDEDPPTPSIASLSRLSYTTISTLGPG", "parameters": "method as in PMID 29849512", "settings": "natGa-labelled competitor; 125I-[Leu15]-Gastrin radioligand; whole A431-CCK2R cells; cited from earlier work"}, "[3]": {"settings": "cited from earlier work"}, "[4]": {"test_system": "peptidase (protease type 1 from bovine pancreas)", "assay": "neutralized Ga-labelling solution with 1 mU of peptidase", "settings": "37°C"}, "[5]": {"test_system": "peptidase (protease type 1 from bovine pancreas)", "assay": "PBS with 1 mU of peptidase", "settings": "37°C, up to 2 h"}, "[6]": {"test_system": "peptidase (protease type 1 from bovine pancreas)", "assay": "iron chelated trimeric peptides dissolved in PBS, 1 mU of peptidase added", "settings": "37°C, up to 2 h"}, "[7]": {"test_system": "peptidase (protease type 1 from bovine pancreas)", "assay": "trimeric peptides labelled with non-radioactive gallium, neutralized, 1 mU of peptidase", "settings": "37°C"}, "[8]": {"test_system": "peptidase (protease type 1 from bovine pancreas)", "assay": "radiolabelling solution neutralized, diluted with PBS, 10 mU of peptidase", "settings": "37°C, up to 120 min"}, "[9]": {"assay": "liver homogenate of injected mice", "settings": "BALB/c mice, up to 5 min post injection"}, "[10]": {"test_system": "A431-CCK2R/A431-mock tumour xenografted BALB/c nude mice", "settings": "mouse, in vivo; cited from earlier work"}},
  "note": "Entries after “also recorded” stand apart in the source; their conditions may differ. Marks after values point to notes of the source that are not given here. Starred links: 1 amine or outer side, 2 acyl side, 3 side chain; linkers in the order of their positions; H or OH if unused. Positions of bridges follow the written chain, without caps; N, C: chain ends. Non-standard residues stand in square brackets, D forms with d. Residues, ends and D or L forms follow the SMILES beside them. Chains are numbered I, II in the order given. X1 = CC1=CC(=O)N(O)CCCC(NC(=O)CCN2C(=O)CC([*:3])C2=O)C(=O)OCCC(C)=CC(=O)N(O)CCCC(NC(=O)CCN2C(=O)CC([*:2])C2=O)C(=O)OCCC(C)=CC(=O)N(O)CCCC(NC(=O)CCN2C(=O)CC([*:1])C2=O)C(=O)OCC1; X2 = CC(=O)NC1CCCN(O)C(=O)C=C(C)CCOC(=O)C(NC(=O)CCN2C(=O)CC([*:1])C2=O)CCCN(O)C(=O)C=C(C)CCOC(=O)C(NC(=O)CCN2C(=O)CC([*:2])C2=O)CCCN(O)C(=O)C=C(C)CCOC1=O; Mpa = O=C(O)CCS",
  "data": [
    {"molecule": "3-MP^0-[D-Glu^1,desGlu^2-6]-Ala-Tyr-Gly-Trp-Nle-Asp-Phe-NH2 [68Ga-Trimer-Nle]", "values": [
      {"measurement": "fragment found", "setting": "[1]", "value": "^68Ga-Trimer-Nle-M1 (tR = 10.93 min), major; also recorded: ^68Ga-Trimer-Nle-M2 (tR = 8.60 min), major"},
      {"measurement": "fragment found", "setting": "[2]", "value": "^68Ga-Trimer-Nle-M1 (tR = 10.90 min), major; also recorded: ^68Ga-Trimer-Nle-M2 (tR = 8.59 min), major"}
    ]},
    {"molecule": "CSCC[C@H](NC(=O)[C@H](Cc1c[nH]c2ccccc12)NC(=O)CNC(=O)[C@H](Cc1ccc(O)cc1)NC(=O)[C@H](C)NC(=O)[C@@H](CCC(=O)O)NC(=O)CCSC1CC(=O)N(CCC(=O)NC2CCCN(O)C(=O)C=C(C)CCOC(=O)C(NC(=O)CCN3C(=O)CC(SCCC(=O)N[C@H](CCC(=O)O)C(=O)N[C@@H](C)C(=O)N[C@@H](Cc4ccc(O)cc4)C(=O)NCC(=O)N[C@@H](Cc4c[nH]c5ccccc45)C(=O)N[C@@H](CCSC)C(=O)N[C@@H](CC(=O)O)C(=O)N[C@@H](Cc4ccccc4)C(N)=O)C3=O)CCCN(O)C(=O)C=C(C)CCOC(=O)C(NC(=O)CCN3C(=O)CC(SCCC(=O)N[C@H](CCC(=O)O)C(=O)N[C@@H](C)C(=O)N[C@@H](Cc4ccc(O)cc4)C(=O)NCC(=O)N[C@@H](Cc4c[nH]c5ccccc45)C(=O)N[C@@H](CCSC)C(=O)N[C@@H](CC(=O)O)C(=O)N[C@@H](Cc4ccccc4)C(N)=O)C3=O)CCCN(O)C(=O)C=C(C)CCOC2=O)C1=O)C(=O)N[C@@H](CC(=O)O)C(=O)N[C@@H](Cc1ccccc1)C(N)=O", "note": "(stereo partly drawn) [Trimer-Met] (I: [Mpa][dE]AYGWMDF-NH2 / II: [Mpa][dE]AYGWMDF-NH2 / III: [Mpa][dE]AYGWMDF-NH2; linker I:1-II:1-III:1 via X1)", "values": [
      {"measurement": "IC50", "setting": "CCK2 receptor", "value": "8.33 ± 2.2", "unit": "nM"},
      {"measurement": "Distribution coefficient logD (pH 7.4)", "setting": "[3]", "value": "-2.20 ± 0.07"}
    ]},
    {"molecule": "3-MP^0-[D-Glu^1,desGlu^2-6]-Ala-Tyr-Gly-Trp-Met-Asp-Phe-NH2", "values": [
      {"measurement": "fragment found", "setting": "[4]", "value": "Ga-Trimer-Met-M1 (tR = 10.08 min); also recorded: Ga-Trimer-Met-M2 (tR = 8.02 min)"},
      {"measurement": "cleaved bond", "setting": "[5]", "value": "Tyr-Gly, major"},
      {"measurement": "cleaved bond", "setting": "[6]", "value": "Tyr-Gly, major"},
      {"measurement": "fragment found", "setting": "[7]", "value": "Ga-Trimer-Met-M1; also recorded: Ga-Trimer-Met-M2; also recorded: Ga-Trimer-Met-M3"}
    ]},
    {"molecule": "3-MP^0-[D-Glu^1,desGlu^2-6]-Ala-Tyr-Gly-Trp-Nle-Asp-Phe-NH2", "values": [
      {"measurement": "fragment found", "setting": "[4]", "value": "Ga-Trimer-Nle-M1 (tR = 10.86 min); also recorded: Ga-Trimer-Nle-M2 (tR = 8.52 min)"},
      {"measurement": "cleaved bond", "setting": "[5]", "value": "Tyr-Gly, major"},
      {"measurement": "cleaved bond", "setting": "[6]", "value": "Tyr-Gly, major"},
      {"measurement": "fragment found", "setting": "[7]", "value": "Ga-Trimer-Nle-M1; also recorded: Ga-Trimer-Nle-M2; also recorded: Ga-Trimer-Nle-M3"}
    ]},
    {"molecule": "3-MP^0-[D-Glu^1,desGlu^2-6]-Ala-Tyr-Gly-Trp-Nle-Asp-Phe-NH2 [^68Ga-Trimer-Nle]", "values": [
      {"measurement": "fragment found", "setting": "[8]", "value": "^68Ga-Trimer-Nle-M1, major, 5 min; also recorded: ^68Ga-Trimer-Nle-M2, major"},
      {"measurement": "fragment found", "setting": "[9]", "value": "^68Ga-Trimer-Nle-M1, major, 5 min post injection; also recorded: ^68Ga-Trimer-Nle-M2, major, 5 min post injection"}
    ]},
    {"molecule": "Monomer-Met: monovalent FSC-based minigastrin conjugate: dAcFSC-mal coupled to one MG-Met-SH peptide (EAYGWMDF; D-Glu at position 1 (printed D-Glu1, desGlu2-6); N-terminal 3-mercaptopropanoyl (3-MP0) whose thiol is coupled to the maleimide of diacetyl-fusarinine C (dAcFSC-mal); C-terminal Phe amide; FSC chelate)", "values": [
      {"measurement": "IC50", "setting": "CCK2 receptor", "value": "9.71 ± 3.55", "unit": "nM"}
    ]},
    {"molecule": "CSCC[C@H](NC(=O)[C@H](Cc1c[nH]c2ccccc12)NC(=O)CNC(=O)[C@H](Cc1ccc(O)cc1)NC(=O)[C@H](C)NC(=O)[C@@H](CCC(=O)O)NC(=O)CCSC1CC(=O)N(CCC(=O)NC2CCCN(O)C(=O)C=C(C)CCOC(=O)C(NC(=O)CCN3C(=O)CC(SCCC(=O)N[C@H](CCC(=O)O)C(=O)N[C@@H](C)C(=O)N[C@@H](Cc4ccc(O)cc4)C(=O)NCC(=O)N[C@@H](Cc4c[nH]c5ccccc45)C(=O)N[C@@H](CCSC)C(=O)N[C@@H](CC(=O)O)C(=O)N[C@@H](Cc4ccccc4)C(N)=O)C3=O)CCCN(O)C(=O)C=C(C)CCOC(=O)C(NC(C)=O)CCCN(O)C(=O)C=C(C)CCOC2=O)C1=O)C(=O)N[C@@H](CC(=O)O)C(=O)N[C@@H](Cc1ccccc1)C(N)=O", "note": "(stereo partly drawn) [Dimer-Met] (I: [Mpa][dE]AYGWMDF-NH2 / II: [Mpa][dE]AYGWMDF-NH2; linker I:1-II:1 via X2)", "values": [
      {"measurement": "IC50", "setting": "CCK2 receptor", "value": "0.85 ± 0.15", "unit": "nM"},
      {"measurement": "Distribution coefficient logD (pH 7.4)", "setting": "[3]", "value": "-2.38 ± 0.04"},
      {"measurement": "Ratio T/O tumour-to-A431-mock", "setting": "[10]", "value": "17.9 ± 6.1^c"},
      {"measurement": "Ratio T/O tumour-to-Blood", "setting": "[10]", "value": "16.0 ± 3.1^cd"},
      {"measurement": "Ratio T/O tumour-to-Bone", "setting": "[10]", "value": "11.6 ± 1.9^c"},
      {"measurement": "Ratio T/O tumour-to-Heart", "setting": "[10]", "value": "27.2 ± 4.8^cd"},
      {"measurement": "Ratio T/O tumour-to-Intestine", "setting": "[10]", "value": "19.9 ± 4.9^acd"},
      {"measurement": "Ratio T/O tumour-to-Kidneys", "setting": "[10]", "value": "0.30 ± 0.06^c"},
      {"measurement": "Ratio T/O tumour-to-Liver", "setting": "[10]", "value": "11.1 ± 2.4^cd"},
      {"measurement": "Ratio T/O tumour-to-Lung", "setting": "[10]", "value": "14.4 ± 2.3^cd"},
      {"measurement": "Ratio T/O tumour-to-Muscle", "setting": "[10]", "value": "31.4 ± 13.2^c"},
      {"measurement": "Ratio T/O tumour-to-Pancreas", "setting": "[10]", "value": "17.9 ± 3.2^cd"},
      {"measurement": "Ratio T/O tumour-to-Spleen", "setting": "[10]", "value": "23.1 ± 4.2^cd"},
      {"measurement": "Ratio T/O tumour-to-Stomach", "setting": "[10]", "value": "4.0 ± 0.5^cd"}
    ]},
    {"molecule": "3-MP^0-[D-Glu^1,desGlu^2-6]-Ala-Tyr-Gly-Trp-Met-Asp-Phe-NH2 [68Ga-Trimer-Met]", "values": [
      {"measurement": "fragment found", "setting": "[1]", "value": "^68Ga-Trimer-Met-M1 (tR = 10.14 min), major; also recorded: ^68Ga-Trimer-Met-M2 (tR = 8.09 min), major; also recorded: ^68Ga-Trimer-Met-M3 (tR = 5.68 min)"},
      {"measurement": "fragment found", "setting": "[2]", "value": "^68Ga-Trimer-Met-M1 (tR = 10.14 min), major; also recorded: ^68Ga-Trimer-Met-M2 (tR = 8.09 min), major"}
    ]},
    {"molecule": "3-MP^0-[D-Glu^1,desGlu^2-6]-Ala-Tyr-Gly-Trp-Met-Asp-Phe-NH2 [^68Ga-Trimer-Met]", "values": [
      {"measurement": "fragment found", "setting": "[8]", "value": "^68Ga-Trimer-Met-M1, major, 5 min; also recorded: ^68Ga-Trimer-Met-M2, major; also recorded: ^68Ga-Trimer-Met-M3"},
      {"measurement": "fragment found", "setting": "[9]", "value": "^68Ga-Trimer-Met-M1, major, 5 min post injection; also recorded: ^68Ga-Trimer-Met-M2, major, 5 min post injection"}
    ]}
  ]
}
